Measured values: patent US11649215B2, “Compositions and methods for the treatment of oral infectious diseases” (Cellix Bio Private Limited, priority 2016, dated 2023)
Values after ≈ are worked out from the molar mass of the structure shown. “Also recorded” adds a separate entry of the source. Where two headings read alike, the source gives them in different places.

Assays:
[1] = tested on: various oral pathogenic microorganisms; details: cited from earlier work; for antimicrobial activity among the long-chain fatty acids: comparison among long-chain fatty acids
[2] = tested on: Candida Species; test: MIC against the Candida Species; type: cell-based; details: conversion of 0.45 μmoles/ml, read-out: MIC (corresponding mass concentration)
Source text: Linoleic acid is GRAS listed long chain fatty acid. […] The minimum inhibitory concentration for linoleic acid against Porphyromonas gingivalis was 9 to 78 mcg/ml.

SMILES | antimicrobial activity among the long-chain fatty acids [1] | antimicrobial activity against oral microorganisms ([1]; in vitro, incl. S. mutans, A. actinomycetemcomitans, C. albicans, P. gingivalis, F. nucleatum, S. gordonii) | bactericidal concentration ([1]; n-6 fatty acids GLA) [µg/mL] | bactericidal concentration [1] [µg/mL] | MIC [2] [µg/mL]
CCCCC/C=C\C/C=C\C/C=C\CCCCC(=O)O [GLA, gamma linoleic acid] | greatest antimicrobial activity | significant anti-microbial activity; also recorded: antimicrobial activities | 25 | – | –
CCCCC/C=C\C/C=C\CCCCCCCC(=O)O [Linoleic acid] | greatest antimicrobial activity | – | – | 25 | 0.13 (≈ 0.464 µM)
CCCCC/C=C\C/C=C\C/C=C\C/C=C\CCCC(=O)O [arachidonic acid] | greatest antimicrobial activity | – | – | – | –
CCCCCCCCCCCCCCCC(=O)O [palmitic acid] | greatest antimicrobial activity | – | – | – | –
CCCCCC/C=C\CCCCCCCC(=O)O [palmitoleic acid] | greatest antimicrobial activity | – | – | – | –
